Data on 2 compounds can be found in patent US10174358B2 (priority 2013, dated 2019).

This experiment has as its target T1, EF-Tu:GTP:aa-tRNA ternary complex (Escherichia coli, UniProt P0CE48, C138A/C256V/E349C).
T1 construct: made in house; host or cells: E. coli BL-21
It is filed as binding. The settings on record: for effect of the inhibitor on fluorescence intensity in the assay: addition of inhibitor to the formed ternary complex, Ex 532/Em 665 nm.

T1 sequence (P0CE48 2-394 C138A/C256V/E349C, one chain of several): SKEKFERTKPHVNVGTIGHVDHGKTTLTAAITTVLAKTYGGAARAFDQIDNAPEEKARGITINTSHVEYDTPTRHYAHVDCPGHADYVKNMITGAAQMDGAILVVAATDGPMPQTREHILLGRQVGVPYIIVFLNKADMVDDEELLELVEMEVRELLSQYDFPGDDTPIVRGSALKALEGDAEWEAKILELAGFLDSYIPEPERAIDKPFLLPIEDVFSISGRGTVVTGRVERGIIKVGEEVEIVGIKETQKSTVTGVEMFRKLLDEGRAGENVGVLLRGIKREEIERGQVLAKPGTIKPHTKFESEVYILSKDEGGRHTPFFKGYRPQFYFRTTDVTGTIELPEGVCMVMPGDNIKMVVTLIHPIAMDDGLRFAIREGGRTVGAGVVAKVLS
Method: FRET Assay (Assembly Fluorescence)
FRET measurements were done using Photon Technology International fluorescence spectrofluorometer with FeliX software. Cy3 fluorescence was monitored in the spectrum or time base mode at excitation/emission 549/565 nm. […] The slot parameters and photomultiplier voltage were adjusted to get a response in the range of 0.5-1.2×10^6 RFU for the Cy3 fluorescence scan at the 20-30 nM Phe-tRNA^Phe(Cy3) concentration and 4-5×10^4 RFU for Cy5 fluorescence scan (excitation/emission 633/665 nm) at the 300-400 nM Cy5-EF-Tu concentration. The titration of Phe-tRNA^Phe(Cy3) by Cy5-EF-Tu was typically done in presence of 100 μM GTP in a 150 μl volume of the same incubation buffer as used in the above mentioned gel retardation assay. During the assay (up to 120 minutes), the reaction mix also was supplemented with 1 mM ATP and 5 μg/ml of Phe-tRNA synthetase to prevent deacylation of Phe-tRNA^Phe(Cy3). The concentration of Phe-RNA^Phe(Cy3) was up to 30 nM and GTP:Cy5-EF-Tu was varied in range of 30-240 nM.
All FRET measurements were done using PTI (Photon Technology International) fluorescence spectrofluorometer with FeliX 1.42B software. The FRET was monitored in the time-base mode using the 532 nm excitation and 665 nm emission (suitable for the Cy5 dye). The slot parameters and photomultiplier voltage were adjusted to get a response in the range of 2.6-3×10^3 RFU for the Cy5 fluorescence at a 200 nM concentration of Cy5-labeled EF-Tu. Time-base titration experiments were typically carried out in a 150 μl black cuvette at 25 or 37° C. The Cy5 fluorescence was monitored at five second intervals for up to 2 hours. Cy5-labeled EF-Tu carrying the E348C mutation was added from a concentrated stock solution to reach the final concentration of 180-200 nM.
The 5× incubation buffer was 350 mM HEPES-KOH (pH 7.6), 260 mM NH4OAc, 40 mM Mg(OAc)2, 150 mM KCl, 7 mM DTT and 12.6% glycerol. The 1× incubation buffer in final reaction volume was also supplemented with 1 mM ATP and 5 μg/ml of Phe-tRNA synthetase, 7.2 mM phosphoenolpyruvate and 2.5 U/ml pyruvate kinase; a 40 μM stock of Cy3-labeled aminoacylated tRNA^Phe, a 30 μM stock of Cy3-labeled uncharged tRNA^Phe, a 110 μM stock of Cy5-labeled EF-Tu [C137A, C255V, E348C], a 5 mg/ml stock of Phe-tRNA synthetase, and a 10 mM stock in DMSO (7.97 mg/ml) of Kirromycin (FW 796.9).
The Cy5-labeled EF-Tu [180 nM] (GTP form) in a 300 μl volume was placed in 1× incubation buffer. The volume was split into two parts and measured in two sets at 25° C.
The Cy5-labeled EF-Tu [180 nM] (GTP form) in a 300 μl volume was placed in 1× incubation buffer. The reaction was split into two parts and supplemented with 100 μM GTP (Set I) or GDP (Set II). The fluorescence intensity was measured at 25° C.
The Cy5-labeled EF-Tu [320 nM] (GTP form) was in a 300 μl volume of the 1× incubation buffer. The reaction was supplemented with 100 μM GTP and split on two parts.

As to `Nc1nc2c(ncn2[C@@H]2O[C@H](COP(=O)(O)OP(=O)(O)O)[C@@H](O)[C@H]2O)c(=O)[nH]1` [GDP], the “effect of the inhibitor on fluorescence intensity in the assay” value is “significantly reduces the fluorescence intensity”. Besides, the “decrease in the Cy5 fluorescence of the formed complex” value (10-fold molar excess of GDP added to formed complex, Cy5-EF-Tu 180 nM, 100 μM GTP, Phe-tRNA^Phe(Cy3) 160 nM, 25° C., FIG. 12) was determined as 60%. Besides, the “FRET response when Cy5-labeled EF-Tu was incubated with GDP” value (Cy5-EF-Tu 180 nM incubated with 100 μM GDP instead of GTP (plot 2 / set II), FIG. 12) is “significantly lower”.
On to kirromycin, for which the “effect of the inhibitor on fluorescence intensity in the assay” value is “significantly reduces the fluorescence intensity”. The “decrease of FRET response after addition of kirromycin” value (kirromycin 80 μM, Cy5-labeled EF-Tu 180 nM (GTP form), Cy3-PhetRNA^Phe 160 nM, 25° C., FIG. 13) is reported as “approximately 30%”.
